Patent publication US20070141618A1, “GENES EXPRESSED IN BREAST CANCER AS PROGNOSTIC AND THERAPEUTIC TARGETS” (priority 2001, published 2007)

Tests used:
TFF1 = conditions: reportedly; Prud'homme et al. 1985; cited from earlier work
[1] = system: primary invasive breast cancer; assay: Clinical tumor response (WHO criteria) in randomized Phase III neoadjuvant trial of letrozole versus tamoxifen; assay type: in vivo, human (postmenopausal women); conditions: clinical outcome of patients with profiled biopsies; clinical assessment by palpation at 4 months
Excerpt: Definitions of Objective Response Used in the Letrozole (FEMARA™) vs. Tamoxifen Comparison Study
1. Complete Response (CR): The disappearance of all known disease, determined by 2 observations not less than 4 weeks apart.
2. Partial Response (PR): A 50% or more decrease in total tumor size of the lesions which have been measured to determine the effect of therapy by 2 observations not less than 4 weeks apart. In addition there can be no appearance of new lesions or progression of any lesion.
4. Progressive Disease (PD): A 25% or more increase in the size of one or more measurable lesions, or the appearance of new lesions.
Clinical Response Assessment
The primary efficacy variable was tumor response, assessed by clinical examination using World Health Organization (WHO) criteria (see, WHO Handbook for Reporting Results of Cancer Treatment). It was defined as the percentage of patients in each treatment group with a CR or PR as determined clinically in the breast by palpation at 4 months. Possible responses were CR, PR, NC, PD or not assessable/not evaluable (NA/NE). Palpable ipsilateral axillary lymph nodal involvement downgraded a clinical CR in tumor. Other factors were also considered such the percentage of patients who underwent breast-conserving surgery (quadrantectomy/lumpectomy) instead of mastectomy. Patients who became inoperable, or who remained inoperable at 4 months, were counted as treatment failures.
Twenty-one RNA samples were extracted from 14-gauge needle core biopsies collected before initiation of neoadjuvant endocrine therapy from patients enrolled in a randomized Phase III trial of letrozole (FEMARA™, Novartis Pharma, Basal Switzerland) versus tamoxifen for postmenopausal women with primary invasive breast cancer ineligible for breast conserving surgery. RNA was extracted from an additional 30 primary breast adenocarcinomas collected in Sweden, one additional ESR1+breast tumor surgical biopsy, two HUVEC samples, two samples from glioblastoma cell line U373-MG and one MCF7 sample using Trizol (Life Technologies, Gaithersburg, Md.). The clinical samples were collected after informed consent had been obtained according to protocols approved by local ethics committees. RNA was purchased for two samples, an infiltrating Stage III duct carcinoma (Ambion, Austin, Tex.) and a pool of two normal breast tissues (Clontech, Palo Alto, Calif.). The total number of samples prepared was 59 including 53 breast cancer biopsies and one pooled normal breast sample. Total RNA was purified using QIAGEN RNEASY™ columns (Qiagen, Valencia, Calif.), processed and hybridized to the HUGENE™ FL 6800 Array (Affymetrix, Santa Clara, Calif.), as described by Lockhart et al., Nat. Biotechnol., Vol. 14, pp. 1675-1680 (1996).
In another aspect of the invention 136 breast biopsies from 53 patients were obtained. RNA was extracted from 116 biopsies. Expression profiles were generated for 43 biopsies from 35 patients. Predictive markers of endocrine therapy responsiveness in breast tumors were identified. The breakdown of the profiled biopsies from the pre-letrozole (FEMARA™) treatments and the patient's clinical outcome was as follows: four patients with CR, nine patients with PR, four patients with NC and four patients with PD.
For the group treated with tamoxifen there were no patients in the CR category, 10 patients with PR, seven patients with NC and four patients with PD.
Patients with CR or PR were classified as “Responders” and those with NC or PD were classified as “Non-responders”. The expression of 8,000 genes was compared between these two groups in the pre-treatment biopsies from patients given Letrozole (FEMARA™). Numerical values (AvDiff) represent the expression level for that gene in a particular sample. For computational reasons the average of the AvDiff values was calculated for each gene on the array for all of the responders. These averages were then compared to each gene for each individual sample in the Non-responders group. […]

[2] = system: advanced ER-positive breast cancer; conditions: patients with advanced ER-positive breast cancer; Clark et al. 1988; cited from earlier work

Question: For `C[C@]12CCC(=O)C[C@@H]1CC[C@@H]1[C@@H]2CC[C@]2(C)[C@@H](O)CC[C@@H]12` [dihydrotestosterone], which “effect on TFF1 mRNA levels” value (TFF1) is on record?
Answer: Its value is “not”.

Question: For `N#Cc1ccc(C(c2ccc(C#N)cc2)n2cncn2)cc1` [letrozole], which “patients with Complete Response (CR)” value [1] is on record?
Answer: The value was “four”.

Question: What about the “patients with No Change (NC)” value [1] of the same molecule?
Answer: The value was “four”.

Question: What about the “patients with Partial Response (PR)” value [1] of the same molecule?
Answer: The value was “nine”.

Question: And the “patients with Progressive Disease (PD)” value [1]?
Answer: The value was “four”.

Question: Which “effect on TFF1 mRNA levels” value (TFF1) does the source give for `CC(=O)[C@H]1CC[C@H]2[C@@H]3CCC4=CC(=O)CC[C@]4(C)[C@H]3CC[C@]12C` [progesterone] here?
Answer: Its value is “not”.

Question: What does the source list for `CC/C(=C(\c1ccccc1)c1ccc(OCCN(C)C)cc1)c1ccccc1` [tamoxifen]?
Answer: patients with Complete Response (CR) [1]: no; patients with No Change (NC) [1]: seven; patients with Partial Response (PR) [1]: 10 patients; patients with Progressive Disease (PD) [1]: four; effect on estradiol induction of TFF1 (TFF1): inhibited; response rate [2]: around 50%
